Columns and labels:
[1] = biological target: T1, caspase-1 (Homo sapiens, UniProt P29466); experiment: Sensitivity of probes for caspase-1 (fluorescence at 585 nm); type: biochemical; conditions: for linear fitting range of Cas-1 concentration: fluorescence intensity at 585 nm vs Cas-1 concentration; for enhancement of fluorescence intensity at 585 nm: Cas-1 0–3 U/mL, assay buffer 50 mM HEPES, 50 mM NaCl, 0.1% chaps, 5% glycerol, 10 mM DTT, 10 mM EDTA, λex 510 nm
T1 sequence (P29466 120-297 limits assumed): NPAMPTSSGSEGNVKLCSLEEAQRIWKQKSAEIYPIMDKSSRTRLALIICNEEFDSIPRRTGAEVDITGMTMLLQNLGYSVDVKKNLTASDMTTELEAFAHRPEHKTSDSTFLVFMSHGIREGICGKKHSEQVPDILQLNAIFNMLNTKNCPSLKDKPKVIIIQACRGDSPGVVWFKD
T1 sequence (P29466 317-404 limits assumed): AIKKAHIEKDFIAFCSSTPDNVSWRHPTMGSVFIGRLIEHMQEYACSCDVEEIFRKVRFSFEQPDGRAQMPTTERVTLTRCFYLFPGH
Experimental: The spectral and chemical properties of all probes were then evaluated. Upon interaction with Cas-1, the specific peptide of the probes is cleaved, leading to the disruption of the FRET process in the system and the recovery of donor fluorescence (Fig. 2a). Prior to fluorescence detection, the UV-vis absorption spectra of the probes were acquired. […] Subsequently, the sensitivity of the probes towards Cas-1 was measured in HEPES buffer (50 mM HEPES, 50 mM NaCl, 0.1% chaps, 5% glycerol, 10 mM DTT, 10 mM EDTA). […] The response differences among the probes were more intuitively observed by analyzing the standard curves of fluorescence intensity at 585 nm against the concentration of Cas-1 (Fig. 2b). […] The reaction kinetics of the probes were also measured by monitoring the fluorescence intensity of FPy1, YPy1 and WPy1 (0.5–4 μM) following incubation with Cas-1 (2 U mL^−1) (Fig. S3a–f). […] The reaction time of the probes was also investigated by monitoring the fluorescence spectra of the probes (5 μM) incubated with Cas-1 (2 U mL^−1) at various time intervals (Fig. S4a–c). […] Finally, the selectivity of the probes was evaluated. A series of potential biologically relevant interferents were selected, and the results illustrated that these interferents had no effect on the probes (Fig. S5a–c). Further selectivity validation was performed through incubating with caspase-3 (1 μg mL^−1), caspase-4 (2 U mL^−1), caspase-8 (1 μg mL^−1) from the caspase protease family. […] Therefore, FPy1 appeared to be the prime candidate for Cas-1 imaging applications. […]
Cell culture plates were sourced from Wuxi NEST Biotechnology. Recombinant human caspase-1, caspase-3, caspase-4, and caspase-8 were obtained from Abcam and MCE (Shanghai, China). Anti-cleaved caspase-1 antibody, anti-GAPDH antibody, and goat anti-Rabbit/anti-mouse lgG/HRP were purchased from CST (USA) and Beyotime […]
(Shanghai, China). […]
Medical College (ethical approval number ZJCLA-IACUC-20011003).
(also on this page, place not known: Wang,*f, Wang*abg Supplementary Information (SI) for Chemical Science. This journal is © The Royal Society of Chemistry 2025)
(1 picture or pasted object on this page, not shown here) […]
mixture was stirred for 3 h. DCM was removed under vacuum, and the residue was purified by silica gel column chromatography (DCM/MeOH, 180/1) to afford WPy1 as a dark purple solid (21 mg, 6 % yield). HRMS (ESI+): calcd […]
Analysis of probe purity by LC-MSD
Prepare dilute solutions of FPy1, YPy1 and WPy1 using chromatographic-grade acetonitrile and transfer them to sample vials. Begin with an initial mobile phase consisting of 20% acetonitrile (0.05 % formic acid) and 80% H2O (0.05 % formic acid). Over the course of 30 minutes, implement a gradient change to a mobile phase of 90% acetonitrile (0.05 % formic acid) and 10% H2O (0.05 % FA). Under the elution conditions, LC-MSD was performed on the above probe solutions and blank solvent acetonitrile.
Sensitivity of probes for caspase-1
(§1) To investigate the sensitivity of the probes for caspase-1, varying concentration of caspase-1 (0, 0.2, 0.4, 0.6, 0.8, 1.0, 1.25, 1.5, 1.75, 2, 2.5, 3 U/mL) were incubated with FPy1 (5 μM), YPy1 (5 μM) and WPy1 (5 μM) respectively in caspase-1 assay buffer (50 mM HEPES, 50 mM NaCl, 0.1 % chaps, 5 % glycerol, 10 mM DTT, 10 mM EDTA) at 37 °C for 2 hours. Fluorescence spectra were recorded using Hitachi F-2700 spectrophotometer with an excitation at 510 nm (Photomultiplier voltage 700 V; Slit widths ex: 10 nm and em =5.0 nm). The fluorescence intensity of FPy1, YPy1 and WPy1 at 585 nm were plotted against the concentration of caspase-1, and a linear regression fitted from the corresponding concentration of caspase-1, and linear regression was applied to determine the slope k. The limit of detection (LoD) was calculated from 3σ/k, in which σ represents the standard deviation of 15 blank measurements.
Various concentrations of FPy1, YPy1 and WPy1 (0.5, 1, 2, 4 μM) in 100 μL enzyme assay buffer (50 mM HEPES, 50 […]

[2] = biological target: T1, caspase-1; experiment: Reaction time of probes for caspase-1; type: biochemical; conditions: probe 5 μM, Cas-1 2 U/mL, assay buffer, 37 °C
Experimental: The spectral and chemical properties of all probes were then evaluated. Upon interaction with Cas-1, the specific peptide of the probes is cleaved, leading to the disruption of the FRET process in the system and the recovery of donor fluorescence (Fig. 2a). Prior to fluorescence detection, the UV-vis absorption spectra of the probes were acquired. […] Subsequently, the sensitivity of the probes towards Cas-1 was measured in HEPES buffer (50 mM HEPES, 50 mM NaCl, 0.1% chaps, 5% glycerol, 10 mM DTT, 10 mM EDTA). […] The response differences among the probes were more intuitively observed by analyzing the standard curves of fluorescence intensity at 585 nm against the concentration of Cas-1 (Fig. 2b). […] The reaction kinetics of the probes were also measured by monitoring the fluorescence intensity of FPy1, YPy1 and WPy1 (0.5–4 μM) following incubation with Cas-1 (2 U mL^−1) (Fig. S3a–f). […] The reaction time of the probes was also investigated by monitoring the fluorescence spectra of the probes (5 μM) incubated with Cas-1 (2 U mL^−1) at various time intervals (Fig. S4a–c). […] Finally, the selectivity of the probes was evaluated. […]
as §1, with “measurements. […]” for “measurements.”

| Substance | limit of detection ([1]; Cas-1, 3σ/k, σ from 15 blank measurements, probe 5 μM, 37 °C, 2 h, estimated) [U L^−1] | fluorescence intensity at 585 nm at the same Cas-1 concentration ([1]; before maximum, compared to YPy1, probe 5 μM) | catalytic efficiency of Cas-1 for the probe ([1]; compared with YPy1, inferred from intensity at same Cas-1 concentration) | linear fitting range of Cas-1 concentration ([1]; probe 5 μM, 37 °C, 2 h) | enhancement of fluorescence intensity at 585 nm ([1]; probe 5 μM, 37 °C, 2 h) | time to maximum fluorescence intensity at 585 nm (reaction time) [2] [min] |
| --- | --- | --- | --- | --- | --- | --- |
| –FLTDG– [FPy1, RhoB donor, hNR quencher] | 3.7 | stronger fluorescence intensity at 585 nm compared to YPy1 | higher catalytic efficiency for FPy1 than YPy1 | 0–1 U mL^−1 | approximately 20.2 fold | ≤ 40 |
| –YVADG– [YPy1, caspase-1-responsive FRET probe with recognition peptide –YVADG–; RhoB donor, hNR quencher] | – | – | – | 0–2 U mL^−1 | ~19.2 fold | 60 |
